The subject of test [1] is spleen cells. The test can be described thus: OVA-specific multifunctional CD4-positive T lymphocytes in spleen cells of immunized mice (flow cytometry). Particulars: spleen cells of mice of Test Example 1, cultured overnight with OVA and Brefeldin A; IFN-γ, IL-2, TNF-α staining; vs negative control group; FIG. 3. The test is classed as in vivo, mouse. Here is the method: (§1) For the first immunization, an equal volume mixture (100 μL/mouse) of ovalbumin (OVA) (1 mg/mL) and a compound of the above Examples (0.1 mg/mL) was administered intramuscularly to gastrocnemius muscle of C57BL/6 mouse. Two weeks later, an equal amount of the same mixture was administered intramuscularly to the gastrocnemius muscle for booster immunization. One week after the booster immunization, cardiac blood was collected under isoflurane inhalation anesthesia, and plasma was collected by centrifugation. OVA-specific IgG value in plasma was measured by ELISA using mouse anti-ovalbumin IgG ELISA kit (Alpha Diagnostic) (See FIG. 1).
The spleen cells were prepared from the mouse of Test Example 1. The cells were added with OVA and Brefeldin A (eBioscience) and cultured overnight. The cultured cells were harvested, stained with APC-labeled anti-mouse CD3e antibody, FITC-labeled anti-mouse CD4 antibody and Fixable Viability Dye Fluor® 450 (eBioscience), and fixed in Fixation/Permeabilization buffer (eBioscience). After treatment in Permeabilization buffer (eBioscience), the cells were stained with antibody cocktail PerCP-Cy5.5-labeled anti-IFN-γ antibody, PE-Cy7-labeled anti-IL-2 antibody, and PE-labeled TNF-α (eBioscience). Data acquisition and analysis were performed using FACS Cant II (BD Biosciences) and FLOWJO software (TreeStar).
For orientation: Flow cytometry measures light scatter and fluorescence of single cells or particles in a stream.

For test [2], the system named is spleen cells. Description: MHC-restricted OVA-specific CD8-positive T lymphocytes in spleen cells of immunized mice (tetramer staining). Type of test: in vivo, mouse. Particulars: spleen cells of mice of Test Example 1, H-2Kb OVA Tetramer-SINFEKL; vs negative control group; FIG. 4. The procedure:
as §1
The spleen cells were also stained with eFluor 450-labeled anti-mouse CD3e antibody, Alexa Fluor® 647-labeled anti-mouse CD8 antibody, PE-labeled H-2Kb OVA Tetramer-SINFEKL (MBL) and Flexable Viability Dye eFluor 520 (eBioscience). Data acquisition and analysis were performed using FACS Cant II (BD Biosciences) and FLOWJO software (TreeStar).

Test [3] has as its system spleen cells. The test can be described thus: CD8-positive effector memory T lymphocytes in spleen cells of immunized mice (flow cytometry). The test is classed as in vivo, mouse. Particulars: spleen cells of mice of Test Example 1, CD44/CD62L staining; vs negative control group; FIG. 5. Here is the method: as §1
The spleen cells were further incubated with antibody cocktail eFluor450-labeled anti-mouse CD3e antibody, Alexa Fluor647-labeled anti-mouse CD8 antibody, PE-Cy7-labeled anti-mouse CD44 antibody, PerCP-Cy5.5-labeled anti-mouse CD62L antibody and Fixable Viability Dye520 (eBioscience). Data acquisition and analysis were performed using FACS Cant II (BD Biosciences) and FLOWJO software (TreeStar).

In test [4] the test system is C57BL/6 mouse. The test can be described thus: OVA-specific IgG1 and IgG2c in immunized mouse plasma (ELISA). Type of test: in vivo. Particulars: intramuscular OVA + compound, prime and booster, vs negative control group, FIG. 2. Here is the method:
as §1
Also, the OVA-specific IgG1 and IgG2c values in the immunized mouse plasma were determined by ELISA method. Specifically, OVA solution (SIGMA) was added to a 96-well plate, followed by blocking with 1% skim milk (Wako Pure Chemical Industries, Ltd.). A plasma sample, which was diluted with phosphate buffer, and then a secondary antibody (goat anti-mouse IgG1 (Jackson) or IgG2c (Southern Bio)) were added. SureBlue™ TMB microwell peroxidase substrate (KPL) was added, and the product of the enzyme reaction was measured by microplate reader (See FIG. 2).

Test [5] concerns C57BL/6 mouse. The test can be described thus: OVA-specific IgG in plasma of mice immunized with OVA plus compound (ELISA). The test is classed as in vivo. Particulars: intramuscular, equal volume mixture (100 μL/mouse) of OVA 1 mg/mL and compound 0.1 mg/mL, booster two weeks later, plasma one week after booster, vs negative control group, FIG. 1. Here is the method: as §1
On the technique in general: In an ELISA, binding on a coated surface is turned into a signal by an enzyme label.

The record followed here is patent publication US10632192B2, “Pyrimidine compounds and their use as vaccine adjuvants” (Sumitomo Dainippon Pharma Co., Ltd., priority 2015, dated 2020).

Turning to `CCC[C@@H](CCO)Nc1nc(N)nc(C)c1Cc1ccc(CN(C)CCNC(=O)CC/C(C)=C/CC/C(C)=C/CC/C(C)=C/CC/C=C(\C)CC/C=C(\C)CCC=C(C)C)cc1` [Example 1, (4E,8E,12E,16E,20E)-N-{2-[{4-[(2-amino-4-{[(3S)-1-hydroxyhexan-3-yl]amino}-6-methylpyrimidin-5-yl)methyl]benzyl}(methyl)amino]ethyl}-4,8,12,17,21,25-hexamethylhexacosa-4,8,12,16,20,24-hexaenamide], in the test with spleen cells [1], the “proportion of OVA-specific multifunctional CD4-positive T lymphocytes” value is recorded as “significantly increased”. Besides, the “proportion of MHC-restricted OVA-specific CD8-positive T lymphocytes” value in the test with spleen cells [2] is “significantly increased”. The “proportion of CD8-positive effector memory T lymphocytes” value in the test with spleen cells [3] is “significantly increased”. For the same compound, in the test with C57BL/6 mouse [4], the “ratio of OVA-specific IgG2c to IgG1 in plasma” value was “significantly increased”. Besides, the “OVA-specific IgG production in plasma” value in the test on C57BL/6 mouse [5] is “induced significant OVA-specific IgG production”.
With `CCC[C@@H](CO)Nc1nc(N)nc(C)c1Cc1ccc(C(=O)NCCNC(=O)CC/C(C)=C/CC/C(C)=C/CC/C(C)=C/CC/C=C(\C)CC/C=C(\C)CCC=C(C)C)cc1OC` [Example 4, 4-[(2-amino-4-{[(25)-1-hydroxypentan-2-yl]amino}-6-methylpyrimidin-5-yl)methyl]-N-(2-{[(4E,8E,12E,16E,20E)-4,8,12,17,21,25-hexamethylhexacosa-4,8,12,16,20,24-hexaenoyl]amino}ethyl)-3-methoxybenzamide], the “proportion of OVA-specific multifunctional CD4-positive T lymphocytes” value in the test with spleen cells [1] was “significantly increased”. Further, the “proportion of MHC-restricted OVA-specific CD8-positive T lymphocytes” value in the test with spleen cells [2] is “significantly increased”. Also, the “proportion of CD8-positive effector memory T lymphocytes” value with spleen cells [3] is given as “significantly increased”. Also, in the test with C57BL/6 mouse [4], the “ratio of OVA-specific IgG2c to IgG1 in plasma” value was “significantly increased”. Besides, the “OVA-specific IgG production in plasma” value with C57BL/6 mouse [5] is recorded as “induced significant OVA-specific IgG production”.
